We go through 1 molecule from patent publication US6143737A, “Progesterone analogs to reverse multidrug resistance” (priority 1996, dated 2000).

The subject of series [1] is MCF-7^ADR cells. Nature of the series: [^3 H] VBL accumulation in MCF-7^ADR cells. It counts as cell-based, human. On the procedure:
5:231-243 (1985)) and provide sufficient free TAM levels in the ER-positive cells.
(§1) While many PGP-reversing agents have been studied, the majority are maximally active in vitro at concentrations≥10 μM. It is widely acknowledged that, for many of these compounds, it is impossible to achieve this level in the sera of patients without inducing severe dose limiting toxicities (Miller, T. P. et al., J. Clin. Oncol. 9:17-24 (1991); Murren & Hait, Oncology Res. 1:1-6 (1992); Dalton, W. D. et al., J. Clin. Oncol. 7:415-424 (1989); Miller, R. L. et al., J. Clin Oncol. 6:880-888 (1988)). Our compounds were evaluated in vitro using concentrations likely to be pharmacologically relevant. […] To determine potency relative to verapamil, we compared the equieffective concentrations. […]. Oncol. 9:17-24 (1991); Dalton, W. D. et al., J. Clin. Oncol. 7:415-424 (1989)). Similar serum levels of progestagens are achieved in patients receiving standard dosing, e.g. megesterol acetate (0.7 μM) (Lundgren & Lonning, J. Steroid. Biochem. 36:105-109 (1990)).
(§2) We then determined the relative potency for increasing [^3 H] VBL accumulation in control (parental) and resistant cells (MCF-7^ADR) and/or MDR1 transduced in comparison with progesterone and verapamil. […]. […]

The subject of another series is CL 10.3 cells. The series is described as follows: [^3 H] VBL accumulation in MDR1-transduced CL 10.3 cells. It counts as cell-based, human. As for the experimental part:
While many PGP-reversing agents have been studied, the majority are maximally active in vitro at concentrations≥10 μM. […] Our compounds were evaluated in vitro using concentrations likely to be pharmacologically relevant. […] To determine potency relative to verapamil, we compared the equieffective concentrations. […] Oncol.
We then determined the relative potency for increasing [^3 H] VBL accumulation in control (parental) and resistant cells (MCF-7^ADR) and/or MDR1 transduced in comparison with progesterone and verapamil.

The subject of series [2] is MCF-7^ADR cells and cells transfected with the MDR gene (CL 10.3). It counts as cell-based, human. As for the experimental part:
as §1, §2

The next series deals with sensitive parental cells. Nature of the series: Effect in sensitive (parental) control cells: VBL accumulation and resistance reversal. It counts as cell-based, human. The text has this:
We then determined the relative potency for increasing [^3 H] VBL accumulation in control (parental) and resistant cells (MCF-7^ADR) and/or MDR1 transduced in comparison with progesterone and verapamil. […]. […] […].
(§3) The ability of compound 4 to reverse both [^3 H]

In series [3] the test system is MCF-7^ADR cells. On the procedure:
(§4) The growth inhibition experiments, i.e., anchorage dependent and independent assays, are designed to allow evaluation of drug interactions by isobologram analysis. Thus, they include a full definition of the dose-response curves relative to the single agents (untreated and up to 8 drug concentrations), all combinations of 5 concentrations of the modulating agent (e.g., C7 analogue) and up to 9 concentrations of the target agent. […] Briefly, cell monolayers are treated with the appropriate drugs, reversing agents and vehicle(s), the monolayers washed 3 times with growth media, gently trypsinized, and suspended in 1.5 ml growth medium containing 0.6% (w/v) agar at 41° C. […] This agar solution is placed over a solid bottom agar layer and incubated for 10 days at 37° C. Dishes are refed with 500 μl of growth medium on days 3 and 6. Colonies of 50 cells or more (~60 μm diameter) are counted using an Omnicron electronic colony counter. Statistical analyses of colony forming ability will be performed using ANOVA.
(§5) Dose-response curves of the cytotoxic drug are obtained in the absence and presence of the chemosensitizer. The curves are corrected by dividing the observed survival values by the fractional survival to the chemosensitizer alone (where present in the combination), and IC50 values obtained by interpolation on the corrected curves. The activity of the chemosensitizer will be quantified as FS=IC50 (-)/IC50 (+), where FS=Fold Sensitization, and IC50 (-) and IC50 (+) are the cytotoxic drug IC50 s respectively in the absence and presence of the chemosensitizer.

The subject of the next series is MDA435/LCC6^MDR1 cells. As to conditions: 1 μM compound 4. As for the experimental part: as §4, §5
For another series, the system named is PGP-resistant cells. Nature of the series: PGP-mediated resistance reversal (VBL cytotoxicity, continuous exposure). It counts as cell-based. To be noted: preliminary data. The source says: (§6) Information on drug stability in serum also may be indirectly assessed by comparing effects on [^3 H] VBL accumulation with cytotoxicity (reversing) assays using a continuous exposure. For example, Thimmaiah, K. N. et al. (J. Med. Chem. 35:3358-3364 (1992)) reported that some phenoxazine analogues increased [^3 H] VBL accumulation but were ineffective at reversing VBL cytotoxicity. […] VBL accumulation and reversing PGP-mediated resistance.

Series [4] is classed as in vitro ADME.
Excerpt: as §6, §3

The mark [5] stands for this setting: MCF-7^ADR and MDR-transfected cells, up to.

Consider `CC(=O)C1CCC2C3C(Sc4ccc(NC(=O)NCCc5ccccc5)cc4)CC4=CC(=O)CCC4(C)C3CCC12C` (stereo not shown) [Compound 4], for which, in the series on MCF-7^ADR cells [1], the “concentration equieffective with the ED50 of verapamil for increasing intracellular VBL: fold lower than progesterone” value stood at 35 fold and the “concentration equieffective with the ED50 of verapamil for increasing intracellular VBL: fold lower than verapamil” value turned out to be 5 fold. For the same molecule, in the series with CL 10.3 cells, the “concentration equieffective with the ED50 of verapamil for increasing intracellular VBL: fold lower than progesterone” value was determined as 30 fold and the “concentration equieffective with the ED50 of verapamil for increasing intracellular VBL: fold lower than verapamil” value is 7 fold. For the same molecule, in series [2], the “maximal increase in intercellular VBL relative to verapamil” value is “equivalent to that achievable with verapamil”. Moreover, in series [2] (setting [5]), the “potency relative to progesterone (fold more potent)” value is reported as “up to 35 fold” and the “potency relative to verapamil, equal-molar basis (ratio of ED50 s)” value is on record as “up to 6 fold”. The “potency relative to verapamil in vitro (VBL accumulation and cytotoxicity)” value in series [2] (human) is not below 6 fold. The “effectiveness among the novel C7 analogs” value in series [2] (preliminary analyses) is given as “more effective of the novel C7 analogs”. Also, in series [2] (preliminary data), the “increasing [^3 H] VBL accumulation” value is “highly potent”. Also, in series [2] (up to), the “potency in increasing [^3 H] VBL accumulation relative to the lead compound (progesterone)” value was “up to 35 fold” and the “potency in increasing [^3 H] VBL accumulation relative to verapamil” value is “up to 7 fold”. Besides, the “specificity for PGP” value in the series with sensitive parental cells (PGP-resistant vs sensitive parental cells) is given as “specific for PGP”. Besides, in the series with sensitive parental cells (sensitive control / parental cells), the “activity in sensitive control cell populations” value is recorded as “not in sensitive control cell populations”. Besides, the “fold sensitization to VBL at VBL's IC50” value with MCF-7^ADR cells [3] (1 μM compound 4, MCF-7^ADR) is on record as “up to 9 fold”. Moreover, the “residual VBL resistance” value with MCF-7^ADR cells [3] (MCF-7^ADR, 1 μM compound 4, from an initial 32-fold) was 3.8 fold. Further, in the series on MCF-7^ADR cells [3] (human), the “potency relative to progesterone in increasing VBL cytotoxicity” value was “approximately 23 fold” and the “potency relative to verapamil in increasing VBL cytotoxicity” value is given as “approximately 6 fold”. For the same molecule, in the series on MDA435/LCC6^MDR1 cells (transduced MDA435/LLC6 cells), the “fold sensitization to VBL at VBL's IC50” value is 20 fold. Moreover, the “residual VBL resistance” value in the series with MDA435/LCC6^MDR1 cells (MDA435/LCC6MDR1, from an initial 49-fold) was determined as 2.4 fold. Moreover, the “reversing PGP-mediated resistance” value with PGP-resistant cells is “highly potent”. For the same molecule, the stability in vitro entry in series [4] is “stable in vitro”.
